Experimental data: patent US8889861B2, “Crystalline forms of a purine derivative” (Cyclacel Limited, priority 2010, dated 2014)
Values after ≈ are worked out from the molar mass of the structure shown. Values joined by “and” are separate entries in the source; they are usually repeats but may differ in a detail not shown here. Equal values may be shown once. “Also recorded” adds a separate entry of the source. Read-outs that look alike come from different tables or passages of the source. Blank lines part the entries; values can stand above or below the compound they belong to.

Legend:
[1] = Gravimetric vapour sorption (GVS) / hygroscopicity; type: physicochemical; conditions: for mass increase (GVS): 25° C., 40-90% RH; for reversible uptake of water from 0 to 90% RH: GVS
Procedure: Gravimetric Vapour Sorption (GVS)
Sorption isotherms were obtained using a SMS DVS Intrinsic moisture sorption analyser, controlled by SMS Analysis Suite software. […] The humidity was controlled by mixing streams of dry and wet nitrogen, with a total flow rate of 200 ml. min^−1. The relative humidity was measured by a calibrated Rotronic probe (dynamic range of 1.0-100% RH), located near the sample. The weight change, (mass relaxation) of the sample as a function of % RH was constantly monitored by the microbalance (accuracy ±0.005 mg). Typically 5-20 mg of sample was placed in a tared mesh stainless steel basket under ambient conditions. The sample was loaded and unloaded at 40% RH and 25° C. (typical room conditions). A moisture sorption isotherm was performed as outlined below (2 scans giving 1 complete cycle). The standard isotherm was performed at 25° C. at 10% RH intervals over a 0.5-90% RH range.
Method Parameters for SMS DVS Intrinsic Experiments:
The sample was recovered after completion of the isotherm and re-analysed by XRPD.
Hiden Isochema Moisture Sorption Analyser (IGAsorp)
Sorption isotherms were obtained using a Hiden Isochema Moisture Sorption Analyser (IGAsorp) controlled by IGAsorp Systems Software V6.50.48. […] The humidity was controlled by mixing streams of dry and wet nitrogen, with a total flow rate of 250 ml. min^−1. The instrument was verified for relative humidity content by measuring three calibrated Rotronic salt solutions (10-50-88%). The weight change of the sample as a function of % RH was monitored by microbalance (accuracy ±0.005 mg). A defined amount of sample was placed in a tared mesh stainless steel basket under ambient conditions. A full experimental cycle consisted of two scans (sorption and desorption) at a constant temperature (25° C.) and 10% RH intervals over a 10-90% RH range (90 minutes for each humidity level).
11.254 mg of sample was placed in a tarred mesh stainless steel basket under ambient conditions. A full experimental cycle consisted of two scans (sorption and desorption) at a constant temperature (25° C.) and 10% RH intervals over a 40-90% range (180 minutes for each humidity level). The mass increase of approximately 0.09 mg (−0.8%) and the facile uptake and loss relative to humidity level indicates a non-hygroscopic sample that dampens with surface moisture only.

[2] = 24 h
Procedure: Thermodynamic Aqueous Solubility
The suspension was equilibrated at 25° C. for 24 hours then the pH was measured. The suspension was then filtered through a glass fibre C filter into a 96 well plate. The filtrate was then diluted by a factor of 101. Quantitation was by HPLC with reference to a standard solution of approximately 0.1 mg. ml^−1 in DMSO. Different volumes of the standard, diluted and undiluted sample solutions were injected.
The suspension was equilibrated at 25° C. for 24 hours. The suspension was then filtered through a filter into an HPLC vial. The filtrate was then diluted by an appropriate factor. Quantification was executed by HPLC with reference to a standard solution of 0.5 mg in 1 mL acetonitrile/water (1:1). Different volumes of the standard, diluted and undiluted sample solutions were injected.
The pH of the solution post solubility was pH 5.

Storage at 40° C./75% RH = type: physicochemical; conditions: for 40° C./75% RH, XRPD / 40° C./75% RH, appearance: 7 d; for 40° C./75% RH, observation or form change: storage time not stated
Procedure: A new XRPD pattern corresponding to the HBr salt was obtained upon storage of HBr Pattern 1 (Form J) at 40° C./75% relative humidity.
The sample was dried in a vacuum oven at 40° C./3 mbar for 18 h to yield the L-malate (Form R) as a white solid. NMR analysis of the sample of Form R formed during the storage of Form Q at 40° C./75% RH confirmed it to be a mono-malate salt.

[3] = Storage in a humidity chamber at 25° C. (75%, 94% or 97% RH); type: physicochemical; conditions: for observation on storage: 25° C./97% RH, time not stated
Procedure: However, a large proportion of the peaks corresponding to compound (I) appear as broadened multiplets, probably due to the presence of the sulfonic acid group, making successful assignment non-trivial. A significant quantity of residual TBME was also visible, though this is believed to be unbound solvent rather than a solvate. XRPD analysis confirmed the material to be crystalline. […] Deliquescence of a sample of the product was observed after storage in a humidity chamber at 25° C. and 94% RH for 2 hours. […]

[4] = Polymorph interconversion of L-tartrate Forms D and E (slurry conversion); conditions: slurry: 1:1 Form D:Form E, 45° C., 48 hours, ethyl acetate, IPA, IMS or acetonitrile
Procedure: Form E of the L-Tartrate salt of compound (I) was also prepared by slurry conversion from four different solvents (ethyl acetate, IPA, IMS or acetonitrile). A 1:1 mixture of Form by weight of D: Form E L-Tartrate salt (200 mg total) was heated at 45° C. over 48 hours in 2 ml of solvent prior to filtration and analysis.

[5] = Rehydration under ambient conditions followed by TGA; type: physicochemical; conditions: 8 mg sample in open TGA pan after heating to 100° C., ambient conditions (approximately 25° C. and 40% RH)
Procedure: A sample of product was heated to 100° C., held for 10 minutes, cooled to 30° C., held for 5 minutes and then re-heated to 250° C. […] To investigate whether the phosphate salt exists as a hydrate under ambient conditions that can be reversibly dehydrated at temperature in the presence of air, a series of TGA experiments were undertaken to clarify how quickly the material rehydrates under ambient conditions. A series of samples were taken to 100° C. then cooled to 25° C. under nitrogen using the TGA equipment. The samples were stored under ambient conditions (RT in air) for varying times and then the TGA experiment was re-run. As a comparison a heat/cool/heat experiment was undertaken under an inert atmosphere of nitrogen using the TGA; a sample was heated to 100° C., cooled to 25° C. and heated to 100° C. for a second time.
Within 30 minutes an 8 mg sample of product in an open TGA pan had fully rehydrated.

cyclin dependent kinases = conditions: cited from earlier work
[6] = test system: range of different cell lines; conditions: cited from earlier work

AQ Solubility [2]: 92 mg/mL | hygroscopicity ([1]; listed as L-malate Pattern 1): hygroscopic | 40° C./75% RH, observation (Storage at 40° C./75% RH; 15 h): 15 h - Deliquescence | 40° C./75% RH, observation (Storage at 40° C./75% RH; 15 h, listed as L-malate Pattern 1): deliquescence | 40° C./75% RH, observation (Storage at 40° C./75% RH; 72 h): crystallisation had occurred | 40° C./75% RH, observation (Storage at 40° C./75% RH; 72 h, listed as L-malate Pattern 1): crystallisation of a new solid form | 40° C./75% RH, appearance (Storage at 40° C./75% RH): White solid | 40° C./75% RH, observation (Storage at 40° C./75% RH; inside 2 h): deliquescence
SMILES: CC[C@H](Nc1nc(NCc2cnc(C)cc2C)c2ncn(C(C)C)c2n1)[C@@H](C)O [Form Q]

AQ Solubility [2]: 75 mg/mL | 40° C./75% RH, observation (Storage at 40° C./75% RH; 30 min): 30 min - Deliquescence
SMILES: CC[C@H](Nc1nc(NCc2cnc(C)cc2C)c2ncn(C(C)C)c2n1)[C@@H](C)O [Form H]

appearance after storage ([3]; 25° C. and 75% RH for 70 hours): slightly tacky | appearance after storage ([3]; 25° C. and 94% RH for 2 hours): Deliquescence | hygroscopicity [1]: highly hygroscopic above 75% RH
SMILES: CC[C@H](Nc1nc(NCc2cnc(C)cc2C)c2ncn(C(C)C)c2n1)[C@@H](C)O [Form G]
XRPD after storage ([3]; 25° C. and 75% RH for 70 hours): consistent with that of the original product, but with a slightly larger amorphous halo

AQ Solubility [2]: > 30 mg/mL | 40° C./75% RH, observation (Storage at 40° C./75% RH; 15 h): deliquescence and 15 h - Deliquescence | 40° C./75% RH, XRPD (Storage at 40° C./75% RH): conversion to a new
SMILES: CC[C@H](Nc1nc(NCc2cnc(C)cc2C)c2ncn(C(C)C)c2n1)[C@@H](C)O [Form J]
40° C./75% RH, appearance (Storage at 40° C./75% RH): crystallisation was observed; also recorded: Sticky solid | 40° C./75% RH, observation or form change (Storage at 40° C./75% RH): conversion to a new Pattern—HBr Pattern 2 (Form K)

appearance after storage ([3]; 25° C. and 94% RH for 88 hours): no deliquescence was observed | time to full rehydration [5]: ≤ 30 min | hygroscopicity [1]: not to be hygroscopic | uptake of water above 80% RH ([1]; GVS at 25° C.): ~1.5 weight % | water lost upon taking to 0% RH ([1]; GVS at 25° C.): 0.5 weight % | uptake of water above 80% RH ([1]; GVS at 40° C.): ~2 weight % | water lost upon taking to 0% RH ([1]; GVS at 40° C.): ~2.6 weight %
SMILES: CC[C@H](Nc1nc(NCc2cnc(C)cc2C)c2ncn(C(C)C)c2n1)[C@@H](C)O [Form B]
XRPD after storage ([3]; 25° C. and 94% RH for 88 hours): matched those acquired for the phosphate salt crystallised from ethanol | XRPD of sample post GVS ([1]; GVS at 25° C.): matched those acquired from product crystallised from ethanol | XRPD of sample post GVS ([1]; GVS at 40° C.): matched those acquired from product crystallised from ethanol

observation on storage [3]: deliquescence | AQ Solubility [2]: 137 mg/mL | Aqueous solubility [2]: ~140 mg/mL | hygroscopicity ([1]; listed as Mesylate Pattern 1): hygroscopic | 40° C./75% RH, observation (Storage at 40° C./75% RH; 15 h): 15 h - Deliquesced | 40° C./75% RH, observation (Storage at 40° C./75% RH; 15 h, listed as Mesylate Pattern 1): deliquescence | 40° C./75% RH, appearance (Storage at 40° C./75% RH): 7 d - No change | 40° C./75% RH, observation or form change (Storage at 40° C./75% RH; listed as mesylate salt): deliquescence
SMILES: CC[C@H](Nc1nc(NCc2cnc(C)cc2C)c2ncn(C(C)C)c2n1)[C@@H](C)O [Form L]

Second part, the compound before the results:

SMILES: CC[C@H](Nc1nc(NCc2cnc(C)cc2C)c2ncn(C(C)C)c2n1)[C@@H](C)O [Form A]
hygroscopicity [1]: non-hygroscopic | mass increase (GVS) [1]: −0.8% | mass increase (GVS) ([1]; 11.254 mg sample): approximately 0.09 mg | XRPD of sample post GVS ([1]; GVS at 25° C.): no change

SMILES: CC[C@H](Nc1nc(NCc2cnc(C)cc2C)c2ncn(C(C)C)c2n1)[C@@H](C)O [Form I]
AQ Solubility [2]: > 79 mg/mL | 40° C./75% RH, XRPD (Storage at 40° C./75% RH): conversion to HCl | 40° C./75% RH, appearance (Storage at 40° C./75% RH): Sticky solid | 40° C./75% RH, observation or form change (Storage at 40° C./75% RH): unstable; also recorded: conversion to HCl Pattern 1 (Form H)

SMILES: CC[C@H](Nc1nc(NCc2cnc(C)cc2C)c2ncn(C(C)C)c2n1)[C@@H](C)O [Form D]
XRPD after storage ([3]; 25° C. and 75% RH for 4 days): consistent with that of the original product | appearance after storage ([3]; 25° C. and 75% RH for 4 days): unchanged | XRPD after storage ([3]; 25° C. and 94% RH for 70 hours): some peaks corresponding to those in the pattern acquired for the original product, though a significant amorphous halo was also visible | appearance after storage ([3]; 25° C. and 94% RH for 70 hours): slightly tacky, though it had not deliquesced | relative stability of the L-tartrate polymorphs [4]: metastable | hydrate formation at high RH (GVS) [1]: no hydrate is formed | hygroscopicity [1]: hygroscopic only above 70% RH

SMILES: CC[C@H](Nc1nc(NCc2cnc(C)cc2C)c2ncn(C(C)C)c2n1)[C@@H](C)O [Form P]
AQ Solubility [2]: 54 mg/mL | Aqueous solubility [2]: approximately 50 mg. ml^−1 | hygroscopicity [1]: Non-hygroscopic, reversible uptake of | reversible uptake of water from 0 to 90% RH [1]: <0.4 wt % from 0 to 90% RH | reversible uptake of water from 0 to 90% RH ([1]; listed as Fumarate Pattern 1): less than 0.4 wt % | hygroscopicity ([1]; listed as Fumarate Pattern 1): non-hygroscopic | 40° C./75% RH, appearance (Storage at 40° C./75% RH): No visual change

SMILES: CC[C@H](Nc1nc(NCc2cnc(C)cc2C)c2ncn(C(C)C)c2n1)[C@@H](C)O [Form F]
XRPD after storage ([3]; 25° C. and 75% RH for 70 hours): consistent with that of the original product | appearance after storage ([3]; 25° C. and 75% RH for 70 hours): unchanged | XRPD after storage ([3]; 25° C. and 94% RH for 3 days): same pattern as obtained for the initial product, but with a significant amorphous halo | appearance after storage ([3]; 25° C. and 94% RH for 3 days): slightly tacky, though it had not deliquesced | hydrate formation at high RH (GVS) [1]: no hydrate is formed | hygroscopicity [1]: hygroscopic above only 70% RH

SMILES: CC[C@H](Nc1nc(NCc2cnc(C)cc2C)c2ncn(C(C)C)c2n1)[C@@H](C)O [Form M]
observation on storage [3]: deliquescence | AQ Solubility [2]: 73 mg/mL | hygroscopicity ([1]; listed as Maleate Pattern 1): hygroscopic above 75% RH | hygroscopicity ([1]; listed as maleate salt): hygroscopic above 40° C./70% RH | 40° C./75% RH, XRPD (Storage at 40° C./75% RH): consistent with Maleate | 40° C./75% RH, appearance (Storage at 40° C./75% RH): Sticky solid | 40° C./75% RH, observation or form change (Storage at 40° C./75% RH; listed as Maleate Pattern 1): sticky solid

SMILES: CC[C@H](Nc1nc(NCc2cnc(C)cc2C)c2ncn(C(C)C)c2n1)[C@@H](C)O [Form E]
Aqueous solubility [2]: 43.9 mg/mL | aqueous solubility [2]: 43.905 mg/mL (≈ 110 mM) | hygroscopicity [1]: only slightly hygroscopic

SMILES: CC[C@H](Nc1nc(NCc2cnc(C)cc2C)c2ncn(C(C)C)c2n1)[C@@H](C)O [Form C]
hygroscopicity [1]: low hygroscopicity; also recorded: not hygroscopic | uptake of water between 60 and 90% RH ([1]; GVS at 25° C.): 0.5 % by weight | weight loss between 10 and 0% RH ([1]; GVS at 25° C.): 0.5%

SMILES: CC[C@H](Nc1nc(NCc2cnc(C)cc2C)c2ncn(C(C)C)c2n1)[C@@H](C)O [compound (I)]
CDK inhibitory activity (cyclin dependent kinases): potent | potency in cellular toxicity studies [6]: surprisingly high potency

SMILES: CC[C@H](Nc1nc(NCc2cnc(C)cc2C)c2ncn(C(C)C)c2n1)[C@@H](C)O [Form R]
hygroscopicity [1]: less hygroscopic than the benzensulfonate and citrate salts | reversible uptake of water from 0 to 90% RH [1]: Reversible uptake of ~2.5 wt % H2O from 0 to 90% RH
